Read-outs that look alike come from different tables or passages of the source. *1 amine or outer side, *2 acyl side, *3 side chain or, on linkers, in order; H or OH if unused. Where a SMILES comes first, the peptide text is derived from it. Side-chain parts run from the residue outwards. [ ]: non-standard residue; d: D form. The star is where a group is joined. αMePhe(2-F) = C[C@](N)(Cc1ccccc1F)C(=O)O; γGlu = O=C(O)[C@H](CCC(=O)[*:2])N[*:1]; C14 diacid = O=C(O)CCCCCCCCCCCCC(=O)*; αMeY = C[C@](N)(Cc1ccc(O)cc1)C(=O)O; αMeL = CC(C)C[C@](C)(N)C(=O)O; Orn = NCCC[C@H](N)C(=O)O; AEEA = NCCOCCOCC(=O)O; Aib = CC(C)(N)C(=O)O
Experiments:
Format in all cases: cell-based
hGCGR = target: T1, hGCGR (Homo sapiens, UniProt P47871); assay: Functional cAMP formation (HTRF) in HEK-293 clonal cells expressing hGCGR, 0.1% bovine casein, without or with 1.0% human serum albumin; conditions: geometric mean, read-out: hGCGR EC50, nM (SEM, n)
T1 construct: expressed in transfected cells
Method in brief: (§1)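 Cells were stimulated with peptide for 30 min at 37° C, then intracellular cAMP was measured by competitive HTRF (665/620 nm ratio) and converted to nM using a cAMP standard curve. Relative EC50 and Emax came from four-parameter logistic fits of percent maximal response against peptide concentration.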

hGLP-1R = hGLP-1R (Homo sapiens, UniProt P43220); assay: Functional cAMP formation (HTRF) in HEK-293 clonal cells expressing hGLP-1R, 0.1% bovine casein, without or with 1.0% human serum albumin; set-up: expressed in transfected cells; conditions: for Emax: read-out: hGLP-1R Emax, % ± SEM; for EC50: geometric mean, read-out: hGLP-1R EC50, nM (SEM, n)
Method in brief: as §1

hGIPR = target: T2, hGIPR (Homo sapiens, UniProt P48546); assay: Functional cAMP formation (HTRF) in HEK-293 clonal cells expressing hGIPR, 0.1% bovine casein, without or with 1.0% human serum albumin; conditions: for Emax: read-out: hGIPR Emax, % ± SEM; for EC50: geometric mean, read-out: hGIPR EC50, nM (SEM, n)
T2 construct: expressed in transfected cells
T2 sequence (P48546 22-466): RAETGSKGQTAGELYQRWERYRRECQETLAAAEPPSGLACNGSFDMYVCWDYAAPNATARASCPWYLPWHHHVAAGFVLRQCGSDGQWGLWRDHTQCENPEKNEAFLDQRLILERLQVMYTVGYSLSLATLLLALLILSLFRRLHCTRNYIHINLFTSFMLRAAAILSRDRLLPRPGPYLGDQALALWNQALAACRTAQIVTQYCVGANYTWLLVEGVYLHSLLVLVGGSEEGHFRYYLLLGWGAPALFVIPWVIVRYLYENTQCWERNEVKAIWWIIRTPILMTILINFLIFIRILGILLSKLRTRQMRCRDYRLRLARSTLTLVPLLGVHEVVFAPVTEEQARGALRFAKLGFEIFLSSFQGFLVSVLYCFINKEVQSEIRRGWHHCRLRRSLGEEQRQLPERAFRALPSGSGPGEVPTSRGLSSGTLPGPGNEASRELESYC
Method in brief: as §1

[1] = 0.1% bovine casein and 1.0% human serum albumin, 37° C.
[2] = cAMP, incubated at 37° C., 0.1% bovine casein (no human serum albumin)
[3] = HEK293, 0.1% bovine casein and 1.0% human serum albumin, 37° C., percent of maximal response to GLP-1(7-36)NH2
[4] = HEK293, 0.1% bovine casein and 1.0% human serum albumin, 37° C., percent of maximal response to GIP(1-42)NH2
[5] = HEK293, percent of maximal response to GIP(1-42)NH2, 37° C., 0.1% bovine casein, arithmetic mean

Chain of hGLP-1R (P43220 24-463): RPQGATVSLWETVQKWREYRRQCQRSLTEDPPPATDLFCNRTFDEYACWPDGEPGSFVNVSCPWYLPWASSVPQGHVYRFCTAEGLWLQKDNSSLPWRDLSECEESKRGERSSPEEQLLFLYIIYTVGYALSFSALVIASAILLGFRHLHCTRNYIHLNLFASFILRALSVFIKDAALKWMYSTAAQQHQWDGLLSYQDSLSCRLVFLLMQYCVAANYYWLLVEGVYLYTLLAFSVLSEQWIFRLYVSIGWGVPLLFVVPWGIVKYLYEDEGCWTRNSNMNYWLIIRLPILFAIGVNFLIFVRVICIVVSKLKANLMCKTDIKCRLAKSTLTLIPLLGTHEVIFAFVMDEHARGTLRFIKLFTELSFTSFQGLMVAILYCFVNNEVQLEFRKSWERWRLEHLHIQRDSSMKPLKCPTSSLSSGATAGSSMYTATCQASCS
T1 sequence (P47871 26-477): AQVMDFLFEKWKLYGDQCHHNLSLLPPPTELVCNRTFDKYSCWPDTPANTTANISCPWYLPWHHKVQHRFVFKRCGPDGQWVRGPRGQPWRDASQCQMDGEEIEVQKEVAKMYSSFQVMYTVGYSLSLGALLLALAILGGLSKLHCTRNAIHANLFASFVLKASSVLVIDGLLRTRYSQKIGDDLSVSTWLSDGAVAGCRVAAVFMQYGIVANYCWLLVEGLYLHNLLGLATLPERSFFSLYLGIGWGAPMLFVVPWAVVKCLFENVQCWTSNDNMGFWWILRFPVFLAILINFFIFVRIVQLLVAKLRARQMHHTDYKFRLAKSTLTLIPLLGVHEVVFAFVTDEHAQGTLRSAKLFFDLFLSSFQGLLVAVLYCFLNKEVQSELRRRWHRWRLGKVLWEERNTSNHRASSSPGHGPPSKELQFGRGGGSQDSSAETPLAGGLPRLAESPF

| SMILES | EC50 (hGCGR; [1]) | EC50 (hGCGR; [2]) | Emax (hGLP-1R; [3]) | Emax (hGLP-1R; HEK293, percent of maximal response to GLP-1(7-36)NH2, 37° C., 0.1% bovine casein, arithmetic mean) | Emax (hGIPR; [4]) | EC50 (hGIPR; [2]) | EC50 (hGLP-1R; [1]) | Emax (hGIPR; [5]) | EC50 (hGLP-1R; [2]) | EC50 (hGIPR; [1]) |
| --- | --- | --- | --- | --- | --- | --- | --- | --- | --- | --- |
| CC[C@H](C)[C@H](NC(=O)[C@H](CC(C)C)NC(=O)[C@](C)(Cc1ccc(O)cc1)NC(=O)[C@@H](CCC(=O)O)NC(=O)[C@@H](NC(=O)[C@H](Cc1ccccc1)NC(=O)[C@H](CCC(=O)O)NC(=O)C(C)(C)NC(=O)[C@H](CCC(N)=O)NC(=O)[C@H](C)NC(=O)[C@H](CCCCNC(=O)COCCOCCNC(=O)COCCOCCNC(=O)CC[C@H](NC(=O)CCCCCCCCCCCCC(=O)O)C(=O)O)NC(=O)[C@H](CCCN)NC(=O)[C@H](CC(=O)O)NC(=O)[C@H](CC(C)C)NC(=O)[C@](C)(CC(C)C)NC(=O)[C@@H](NC(=O)[C@H](CO)NC(=O)[C@](C)(CC(C)C)NC(=O)[C@H](CC(=O)O)NC(=O)[C@H](CO)NC(=O)[C@@H](NC(=O)[C@](C)(Cc1ccccc1F)NC(=O)[C@@H](NC(=O)CNC(=O)[C@H](CCC(=O)O)NC(=O)C(C)(C)NC(=O)[C@@H](N)Cc1ccc(O)cc1)[C@@H](C)O)[C@@H](C)O)[C@@H](C)CC)[C@@H](C)CC)C(=O)N[C@@H](CCC(=O)O)C(=O)NCC(=O)NCC(=O)N[C@@H](CCCCNC(=O)COCCOCCNC(=O)COCCOCCNC(=O)CC[C@H](NC(=O)CCCCCCCCCCCCC(=O)O)C(=O)O)C(=O)N[C@@H](CO)C(=O)N[C@@H](CO)C(=O)NCC(=O)N[C@@H](C)C(=O)N1CCC[C@H]1C(=O)N1CCC[C@H]1C(=O)N1CCC[C@H]1C(=O)N[C@@H](CO)C(N)=O [Example 51] | > 9950 nM | > 9950 nM | 92.9% | 85.7 ± 9.8% | 90.7% | 0.11 nM | – | – | – | – |
| CC[C@H](C)[C@H](NC(=O)[C@H](CC(C)C)NC(=O)[C@](C)(Cc1ccc(O)cc1)NC(=O)[C@@H](CCC(=O)O)NC(=O)[C@@H](NC(=O)[C@H](Cc1ccccc1)NC(=O)[C@H](CCC(=O)O)NC(=O)C(C)(C)NC(=O)[C@H](CCC(N)=O)NC(=O)[C@H](C)NC(=O)[C@H](CCCCNC(=O)COCCOCCNC(=O)COCCOCCNC(=O)CC[C@H](NC(=O)CCCCCCCCCCCCC(=O)O)C(=O)O)NC(=O)[C@H](CCCN)NC(=O)[C@H](CC(=O)O)NC(=O)[C@H](CC(C)C)NC(=O)[C@](C)(CC(C)C)NC(=O)[C@@H](NC(=O)[C@H](CO)NC(=O)C1(NC(=O)[C@H](CC(=O)O)NC(=O)[C@H](CO)NC(=O)[C@@H](NC(=O)[C@](C)(Cc2ccccc2F)NC(=O)[C@@H](NC(=O)CNC(=O)[C@H](CCC(=O)O)NC(=O)C(C)(C)NC(=O)[C@@H](N)Cc2ccc(O)cc2)[C@@H](C)O)[C@@H](C)O)CCCCC1)[C@@H](C)CC)[C@@H](C)CC)C(=O)N[C@@H](CCC(=O)O)C(=O)NCC(=O)NCC(=O)N[C@@H](CCCCNC(=O)COCCOCCNC(=O)COCCOCCNC(=O)CC[C@H](NC(=O)CCCCCCCCCCCCC(=O)O)C(=O)O)C(=O)N[C@@H](CO)C(=O)N[C@@H](CO)C(=O)NCC(=O)N[C@@H](C)C(=O)N1CCC[C@H]1C(=O)N1CCC[C@H]1C(=O)N1CCC[C@H]1C(=O)N[C@@H](CO)C(N)=O [Example 54] | > 9950 nM | > 9950 nM | – | – | 85.6% | – | 20.3 nM | 113% | – | – |
| CC[C@H](C)[C@H](NC(=O)[C@H](CC(C)C)NC(=O)[C@](C)(Cc1ccc(O)cc1)NC(=O)[C@@H](CCC(=O)O)NC(=O)[C@@H](NC(=O)[C@H](Cc1ccccc1)NC(=O)[C@H](CCC(=O)O)NC(=O)C(C)(C)NC(=O)[C@H](CCC(N)=O)NC(=O)[C@H](C)NC(=O)[C@H](CCCCNC(=O)COCCOCCNC(=O)COCCOCCNC(=O)CC[C@H](NC(=O)CCCCCCCCCCCCC(=O)O)C(=O)O)NC(=O)[C@H](CCCN)NC(=O)[C@H](CC(=O)O)NC(=O)[C@H](CC(C)C)NC(=O)[C@](C)(CC(C)C)NC(=O)[C@@H](NC(=O)[C@H](CO)NC(=O)[C@H](Cc1ccc(-c2ccccc2)cc1)NC(=O)[C@H](CC(=O)O)NC(=O)[C@H](CO)NC(=O)[C@@H](NC(=O)[C@](C)(Cc1ccccc1F)NC(=O)[C@@H](NC(=O)CNC(=O)[C@H](CCC(=O)O)NC(=O)C(C)(C)NC(=O)[C@@H](N)Cc1ccc(O)cc1)[C@@H](C)O)[C@@H](C)O)[C@@H](C)CC)[C@@H](C)CC)C(=O)N[C@@H](CCC(=O)O)C(=O)NCC(=O)NCC(=O)N[C@@H](CCCCNC(=O)COCCOCCNC(=O)COCCOCCNC(=O)CC[C@H](NC(=O)CCCCCCCCCCCCC(=O)O)C(=O)O)C(=O)N[C@@H](CO)C(=O)N[C@@H](CO)C(=O)NCC(=O)N[C@@H](C)C(=O)N1CCC[C@H]1C(=O)N1CCC[C@H]1C(=O)N1CCC[C@H]1C(=O)N[C@@H](CO)C(N)=O [Example 55] | > 9950 nM | > 9950 nM | – | – | 85.7 ± 0.885% | 0.0207 nM | 70.5 nM | 97.1 ± 2.16% | 0.154 nM | – |
| CC[C@H](C)[C@H](NC(=O)[C@H](CC(C)C)NC(=O)[C@](C)(Cc1ccc(O)cc1)NC(=O)[C@@H](CCC(=O)O)NC(=O)[C@@H](NC(=O)[C@H](Cc1ccccc1)NC(=O)[C@H](CCC(=O)O)NC(=O)C(C)(C)NC(=O)[C@H](CCC(N)=O)NC(=O)[C@H](C)NC(=O)[C@H](CCCCNC(=O)COCCOCCNC(=O)COCCOCCNC(=O)CC[C@H](NC(=O)CCCCCCCCCCCCC(=O)O)C(=O)O)NC(=O)[C@H](CCCN)NC(=O)[C@H](CC(=O)O)NC(=O)[C@H](CC(C)C)NC(=O)[C@](C)(CC(C)C)NC(=O)[C@@H](NC(=O)[C@H](CO)NC(=O)[C@H](Cc1cccc2ccccc12)NC(=O)[C@H](CC(=O)O)NC(=O)[C@H](CO)NC(=O)[C@@H](NC(=O)[C@](C)(Cc1ccccc1F)NC(=O)[C@@H](NC(=O)CNC(=O)[C@H](CCC(=O)O)NC(=O)C(C)(C)NC(=O)[C@@H](N)Cc1ccc(O)cc1)[C@@H](C)O)[C@@H](C)O)[C@@H](C)CC)[C@@H](C)CC)C(=O)N[C@@H](CCC(=O)O)C(=O)NCC(=O)NCC(=O)N[C@@H](CCCCNC(=O)COCCOCCNC(=O)COCCOCCNC(=O)CC[C@H](NC(=O)CCCCCCCCCCCCC(=O)O)C(=O)O)C(=O)N[C@@H](CO)C(=O)N[C@@H](CO)C(=O)NCC(=O)N[C@@H](C)C(=O)N1CCC[C@H]1C(=O)N1CCC[C@H]1C(=O)N1CCC[C@H]1C(=O)N[C@@H](CO)C(N)=O [Example 56] | > 9950 nM | > 9950 nM | 123 ± 6.57% | – | 91.4 ± 1.04% | 0.0138 nM | – | 90.3 ± 2.57% | – | – |
| CC[C@H](C)[C@H](NC(=O)[C@H](CC(C)C)NC(=O)[C@](C)(Cc1ccc(O)cc1)NC(=O)[C@@H](CCC(=O)O)NC(=O)[C@@H](NC(=O)[C@H](Cc1ccccc1)NC(=O)[C@H](CCC(=O)O)NC(=O)C(C)(C)NC(=O)[C@H](CCC(N)=O)NC(=O)[C@H](C)NC(=O)[C@H](CCCCNC(=O)COCCOCCNC(=O)COCCOCCNC(=O)CC[C@H](NC(=O)CCCCCCCCCCCCC(=O)O)C(=O)O)NC(=O)[C@H](CCCN)NC(=O)[C@H](CC(=O)O)NC(=O)[C@H](CC(C)C)NC(=O)[C@](C)(CC(C)C)NC(=O)[C@@H](NC(=O)[C@H](CO)NC(=O)[C@H](Cc1ccc(OC)cc1)NC(=O)[C@H](CC(=O)O)NC(=O)[C@H](CO)NC(=O)[C@@H](NC(=O)[C@](C)(Cc1ccccc1F)NC(=O)[C@@H](NC(=O)CNC(=O)[C@H](CCC(=O)O)NC(=O)C(C)(C)NC(=O)[C@@H](N)Cc1ccc(O)cc1)[C@@H](C)O)[C@@H](C)O)[C@@H](C)CC)[C@@H](C)CC)C(=O)N[C@@H](CCC(=O)O)C(=O)NCC(=O)NCC(=O)N[C@@H](CCCCNC(=O)COCCOCCNC(=O)COCCOCCNC(=O)CC[C@H](NC(=O)CCCCCCCCCCCCC(=O)O)C(=O)O)C(=O)N[C@@H](CO)C(=O)N[C@@H](CO)C(=O)NCC(=O)N[C@@H](C)C(=O)N1CCC[C@H]1C(=O)N1CCC[C@H]1C(=O)N1CCC[C@H]1C(=O)N[C@@H](CO)C(N)=O [Example 58] (H-Y[Aib]EGT[αMePhe(2-F)]TSDY(Me)SI[αMeL]LD[Orn]K([AEEA-AEEA-γGlu-C14 diacid])AQ[Aib]EFI[dE][αMeY]LIEGGK([AEEA-AEEA-γGlu-C14 diacid])SSGAPPPS-NH2) | > 9950 nM | > 9950 nM | – | – | 92.2 ± 7.4% | 0.0158 nM | – | 89.2 ± 5.96% | 0.194 nM | 1.12 nM |

Reference: patent publication US20230265151A1, “GIP/GLP1 CO-AGONIST COMPOUNDS” (priority 2020, published 2023)
